Like-named read-outs stand apart in the source and are kept apart here.
Legend:
[1] = Cumulative urinary and fecal excretion in metabolic cage; format: in vivo; conditions: rat, IV 10 mg/kg, 72 h; for dose excreted: feces and urine combined, read-out: recovery of unaltered Jaspine B from combined feces and urine
Description: In the experiment using metabolic cages, feces were collected at 12, 24, 48, and 72 h following the IV administration of Jaspine B (10 mg/kg). Aliquots of 50 μL of urine and 10% feces homogenates were stored at −80 °C until the analysis.
Aliquots (50 μL) of plasma, bile, feces homogenates, and urine samples were added to 250 μL of acetonitrile containing 0.5 ng/mL of berberine (an internal standard). After vortexing for 10 min and centrifugation at 13,200 rpm for 5 min, an aliquot (2 μL) of the supernatant was injected directly into the LC-MS/MS system. For the analysis of plasma concentration, the standard curve range was 25–5000 ng/mL and the concentrations of quality control (QC) samples were 75, 500, and 3000 ng/mL, as described previously. Concentrations of Jaspine B in urine, bile, and feces homogenates were 5–300 ng/mL, 20–5000 ng/mL, and 20–5000 ng/mL, respectively. The concentrations of QC samples were 15, 100, and 300 ng/mL for urine samples and 75, 500, and 3000 ng/mL for bile and feces homogenates.

[2] = test system: metastatic melanoma cell growth in the lungs; set-up: method as in PMID 22451302; conditions: mice, intravenous (equivalent to 6.7 mg/kg) on 4th, 8th, 12th day, read on day 14; cited from earlier work
[3] = Stability of QC samples in plasma; set-up: species or system rat
Description: For the analytical validation of Jaspine B in plasma samples, the standard curve range was 25–5000 ng/mL and the concentrations of quality control (QC) samples were 75, 500, and 3000 ng/mL. The recovery of these spiked QC sample were in the range of 88.2–98.1%. Intra- and inter-day precision and accuracy had coefficients of variance of less than 10%. The stability of Jaspine B QC samples after 3 freeze thaw cycles were 83.9–94.4% and the short-term stability of these samples after standing for 6 h at room temperature was 94.3–100.1%.

[4] = Apparent partition coefficient between n-octanol and PBS; format: physicochemical; conditions: n-octanol/PBS pH 7.4, 10 mM TC vs absence of TC, 25 °C
Description: The effect of TC on the apparent partition coefficients (APC) of Jaspine B between aqueous and organic phases was investigated. n-Octanol and phosphate-buffered saline (PBS, pH 7.4) were used as the organic and aqueous phases, respectively, in the partition study. n-Octanol and PBS were saturated with respect to one another prior to use. An equal volume of n-octanol was added to PBS (5 mL each) containing Jaspine B (10 mM) and TC (0, 0.1, 1, 10, or 100 mM) in a screw-capped test tube, and the mixture was vortexed vigorously for 5 min followed by shaking for 2 h at 25 °C in a temperature-controlled water bath. After standing for 1 h at 25 °C in the water bath, the mixture was separated into two phases by centrifugation at 3000 rpm for 10 min. The concentration of Jaspine B in a 50-μL aliquot of aqueous and organic phase was measured. Briefly, 50 μL of sample was added to 250 μL of acetonitrile containing 0.5 ng/mL of berberine. After vortexing for 10 min and centrifugation at 13,200 rpm for 5 min, an aliquot (2 μL) of the supernatant was injected directly into the LC-MS/MS system. The APC was calculated from the concentration ratio of each compound between the octanol and PBS phases.

in vitro = in vitro ADME, rat
Description: For the measurement of the effect of TC on the tight junction of biological membranes, the permeability of 50 μM Lucifer yellow, a marker of paracellular permeation, was measured in the presence of TC (0, 0.1, 1, 10, 100 mM). Prior to the experiment, ileal segments from SD rats (about 20 cm) were placed in the chambers and were submerged in fresh, prewarmed (37 °C) HBSS for 15 min for acclimatization. The chambers were continuously bubbled with carbogen gas (5% CO2/ 95% O2) during the experiment. The experiments began by replacing the HBSS with HBSS containing 50 μM Lucifer yellow and various concentrations of TC on the apical side (A) and adding fresh HBSS to the basal side (B). Aliquots (400 μL) of media were withdrawn from the receiver compartment (B) after 0, 20, 40, 60, and 80 min, and the volume of liquid in the receiver compartment was replenished with fresh, prewarmed HBSS after each sampling. Aliquots (200 μL) of all samples were used for the determination of Lucifer yellow concentration. The fluorescence of Lucifer yellow in the samples was measured using a fluorescence spectrophotometer (Infinite 200 PRO, Tecan, Switzerland) with excitation at 425 nm and emission at 535 nm.
A to B and B to A permeability of Jaspine B was measured in the presence of TC and rat bile. One mL of HBSS containing 50 μM Jaspine B and 10 mM TC or 20% bile was added to the donor side and 1 mL of preheated fresh HBSS was added to the receiver side. Aliquots (400 μL) of media were withdrawn at 0, 20, 40, 60, and 80 min from the receiver compartment as described above. Aliquots (50 μL) of all samples were stored at −80 °C until analysis.
Aliquots (50 μL) of all samples were added to 250 μL of acetonitrile containing 0.5 ng/mL of berberine. After vortexing for 10 min and centrifugation at 13,200 rpm for 5 min, 2 μL of the supernatant was injected directly into the LC-MS/MS system.
The apparent permeability (Papp) of the drug was calculated by dividing the initial drug transport rate (dQ/dt, pmol/min) by the initial drug concentration in the donor compartment of the insert (Co) multiplied by the surface area of the insert (A, cm^2): (3) Papp=dQ/dt×1/ACo

dose excreted ([1]; SD (Sprague-Dawley)): 6.3% | dose excreted ([1]; Sprague-Dawley (SD)): ~6.3% | dose recovered from feces ([1]; metabolic cage): 4.7 ± 0.8% | dose recovered from urine ([1]; metabolic cage): 1.6 ± 0.7% | stability after 3 freeze thaw cycles ([3]; plasma QC samples 75, 500, 3000 ng/mL): 83.9–94.4% | short-term stability ([3]; plasma QC samples, 6 h at room temperature): 94.3–100.1% | increase of partition coefficient [4]: 10 fold | permeability change (in vitro): increased the permeability | Papp at 80 min, 50 μM (in vitro; Sprague-Dawley, rat): 0.11 ×10⁻⁶ cm/s | increase of secretory (B to A) permeability (in vitro; Sprague-Dawley, rat, 80 min, 50 μM): approximately 5 fold
Compound: CCCCCCCCCCCCCC[C@@H]1OC[C@H](N)[C@@H]1O [Jaspine B]
metastatic melanoma cell growth in the lungs [2]: dramatically decreased
